According to patent publication US6417384B1, “Radioiodinated phospholipid ether analogs and methods of using the same” (The Regents of the University of Michigan, priority 1999, dated 2002):

Columns and labels:
Type in all cases: in vivo, rat
[1] = tested on: rats bearing Walker-256 tumor; experiment: Biodistribution studies with Walker-256 carcinosarcoma; conditions: i.v., Walker-256 tumor-bearing rats, mean ± SEM
Experimental: The three radiolabelled compounds illustrated in FIG. 5, including the improved C-18 analog 18-(p-iodophenyl)octadecyl phosphocholine (Compound XVI) described in Example 2, were prepared and administered to two sets of female Sprague Dawley rats (Charles River, Portage, Mich.). One normal set was used as a control, and one set was inoculated with Walker-256 carcinosarcoma cells (5×10^6 cells) in 0.2 ml saline in the right hindlimb. The Walker carcinoma cell line was provided by Dr. James Varani of the Department of Pathology at the University of Michigan, and is an accepted cell line representative of effect in humans. See, e.g. Tayck et al., “Influence of the Walker 256 Carcinosarcoma on Muscle, Tumor, and Whole-Body Protein Synthesis and Growth Rate in the Cancer-Bearing Rat, Cancer Res. 46:5649-54 (1986).
The animals were used 6-8 days later when the tumor weight averaged 10 g. The radiolabelled compounds were dissolved in absolute ethanol (50-500 μl) and Tween-20 (0.1 ml/mg of compound) was added to the solution. Ethanol was removed by evaporation under a stream of nitrogen. Physiological saline or sterile water was added, to give a 2-3% Tween-20 solution which was subsequently mixed by vortex. The solubilized radiolabelled compounds (5-10 μCi, 0.3 ml) were administered intravenously via the tail vein to tumor bearing rats, and the animals were sacrificed by exsanguination while under ether anesthesia at the various time points. Blood samples were collected through cardiac puncture and selected tissues (liver, kidney, etc.) were removed, trimmed, blotted to remove excess blood and weighed. Large organs were thoroughly minced with scissors to obtain random representative tissue samples.
For the biodistribution experiments with 12-(p-iodophenyl)dodecyl phosphocholine, weighed tissue samples were counted with a well scintillation counter (85% counting efficiency). The concentration of radioactivity in each tissue was expressed as a percentage of administered dose per gram of tissue.
Tissue distribution was assessed at various times following administration of the radioiodinated chain length isomers. The results are expressed as the mean % administered dose per gram±SEM (% Dose/g±SEM).

[2] = tested on: Dunning R3327 prostate tumor-bearing animals; experiment: Gamma camera scintigraphy studies with Dunning R3327 prostate tumor; conditions: >40 μCi injected, 125I window, static fifteen-minute images
Experimental: Comparative in vivo scintigaphic studies were also conducted using the C-12 analog 12-(p-iodophenyl)dodecyl phosphocholine and the C-18 analogs 18-(p-iodophenyl)octadecyl phosphocholine (Compound XVI) and 1-O-[18-(p-iodophenyl)octadecyl]-1,3-propanediol-3-phosphocholine (Compound XIV) utilized in Example 7. The imaging studies were performed on Dunning R3327 prostate tumor-bearing animals injected with >40 μCi of the radioiodinated phospholipid ether formulations described above. The anesthetized animals were imaged at selected times after injection on a gamma camera set to the ^125I window and outfitted with a low energy collimator. Static fifteen-minute images were obtained for each animal at the specified time. The results are illustrated in FIGS. 8A-8C.

[3] = tested on: rats bearing Dunning (MATLyLu) prostate tumors; experiment: Biodistribution studies with Dunning prostate tumor; conditions: i.v., Dunning MAT-LyLu prostate tumor-bearing rats, mean ± SEM
Experimental: The three radiolabelled compounds illustrated in FIGS. 7A-7C, including the improved C-18 analogs 18-(p-iodophenyl)octadecyl phosphocholine (Compound XVI—FIG. 7B) and 1-O-[18-(p-iodophenyl)octadecyl]-1,3-propanediol-3-phosphocholine (Compound XIV—FIG. 7C) described in Examples 2 and 3, respectively, were prepared and administered to two sets of male Copenhagen rats (Harlan Sprague-Dawley, Indianapolis, Ind.). One group of normal animals was used as a control, and another group was inoculated with Dunning prostate tumor cells (1×10^6 MAT-LyLu cells) in 0.2 ml saline in the right hindlimb. The MAT-LyLu subline of the Dunning (R-3327) adenocarcinoma prostate tumor was provided by Dr. Ken Pienta of the Department of Urology at the University of Michigan, and is an accepted cell line representative of effect in humans. See, e.g., Pienta et al., “Inhibition of Spontaneous Metastasis in a Rat Prostrate Cancer Model by Oral Administration of Modified Citrus Pectin, J. Natl. Cancer Inst. 87:348-53 (1995).
The animals were maintained with free access to food and water until day 8-10. The radioiodinated phospholipid ether analog formulated in 2% Tween 20—sterile water (5-10 μCi, 0.3-0.4 ml, described above in Example 6) was administered intravenously into the tail vein of the tumor-bearing animals under metofane anesthesia. The animals were euthanized at selected time points after injection (n=3 per time point) and samples of blood, plasma and a variety of tissues including tumor and prostate are collected and analyzed for radioiodine content. Biodistribution values are calculated as the mean of the individual % administered dose per gram of tissue and % dose per organ values.

“12-(p-iodophenyl)dodecyl phosphocholine [C-12 Analog]” was tested, and the “mean % administered dose per gram, Adrenal” value ([1]; 24 hr) was 0.33 ± 0.01 % Dose/g, the “mean % administered dose per gram, Adrenal” value ([1]; 48 hr) was 0.29 ± 0.01 % Dose/g and the “mean % administered dose per gram, Blood” value ([1]; Blood, 24 hr) was 0.27 ± 0.04 % Dose/g. The “mean % administered dose per gram, Blood” value ([1]; Blood, 48 hr) was 0.27 ± 0.03 % Dose/g, the blood levels ([1]; Blood, 120 hours) was 0.22±0.03 % Dose/g and the “mean % administered dose per gram, Duodenum” value ([1]; 24 hr) was 1.35 ± 0.13 % Dose/g. The “mean % administered dose per gram, Duodenum” value ([1]; 48 hr) was 0.77 ± 0.06 % Dose/g, the “mean % administered dose per gram, Kidney” value ([1]; 24 hr) was 4.10 ± 0.44 % Dose/g and the “mean % administered dose per gram, Kidney” value ([1]; 48 hr) was 3.44 ± 0.08 % Dose/g. For the same substance, the “mean % administered dose per gram, Liver” value ([1]; 24 hr) was 1.62 ± 0.17 % Dose/g, the “mean % administered dose per gram, Liver” value ([1]; 48 hr) was 1.37 ± 0.01 % Dose/g and the “mean % administered dose per gram, Lung” value ([1]; 24 hr) was 1.06 ± 0.04 % Dose/g. The “mean % administered dose per gram, Lung” value ([1]; 48 hr) was 0.53 ± 0.01 % Dose/g, the “mean % administered dose per gram, Plasma” value ([1]; 24 hr) was 0.39 ± 0.05 % Dose/g and the “mean % administered dose per gram, Plasma” value ([1]; 48 hr) was 0.39 ± 0.05 % Dose/g. The “mean % administered dose per gram, Tumor” value ([1]; 24 hr) was 2.99 ± 0.34 % Dose/g, the “mean % administered dose per gram, Tumor” value ([1]; 48 hr) was 1.84 ± 0.09 % Dose/g and the “tumor localization in gamma camera scintigraphy images” value [2] was “tumor was barely visible”. The “mean % administered dose per gram, Adrenal” value ([3]; 24 hr) was 0.29 ± 0.01 % Dose/g, the “mean % administered dose per gram, Adrenal” value ([3]; 48 hr) was 0.23 ± 0.01 % Dose/g and the “mean % administered dose per gram, Blood” value ([3]; 24 hr) was 0.23 ± 0.02 % Dose/g. The “mean % administered dose per gram, Blood” value ([3]; 48 hr) was 0.22 ± 0.01 % Dose/g, the “mean % administered dose per gram, Kidney” value ([3]; 24 hr) was 4.45 ± 0.27 % Dose/g and the “mean % administered dose per gram, Kidney” value ([3]; 48 hr) was 3.38 ± 0.43 % Dose/g. For the same substance, the “mean % administered dose per gram, Liver” value ([3]; 24 hr) was 1.27 ± 0.02 % Dose/g, the “mean % administered dose per gram, Liver” value ([3]; 48 hr) was 1.05 ± 0.03 % Dose/g and the “mean % administered dose per gram, Lung” value ([3]; 24 hr) was 0.48 ± 0.03 % Dose/g. For the same substance, the “mean % administered dose per gram, Lung” value ([3]; 48 hr) was 0.33 ± 0.02 % Dose/g, the “mean % administered dose per gram, Plasma” value ([3]; 24 hr) was 0.32 ± 0.03 % Dose/g and the “mean % administered dose per gram, Plasma” value ([3]; 48 hr) was 0.32 ± 0.01 % Dose/g. For the same substance, the “mean % administered dose per gram, Tumor” value ([3]; 24 hr) was 0.37 ± 0.03 % Dose/g and the “mean % administered dose per gram, Tumor” value ([3]; 48 hr) was 0.30 ± 0.01 % Dose/g.
